Source: ChEMBL document CHEMBL2176906, “Diterpenoids isolated from Sideritis species protect astrocytes against oxidative stress via Nrf2” (J Nat Prod, 2012)
Activity calls are given as the source filed them. No cut-off for these calls is given here.

System: U373 MG
Assay: Inhibition of AAPH-induced oxidative stress in human U373MG cells assessed as peroxy radical scavenging activity at 8 uM by ORAC assay
Format: functional, cell-based
Conditions: U-373MG ATCC

Cc1c(C)c2c(c(C)c1O)CCC(C)(C(=O)O)O2 (stereo unspecified)
Activity: Active
